# Calls of active or inactive are those of the source.
# What was measured:
# Coagulation factor XII = molecular target: T1, Coagulation factor XII (Homo sapiens, UniProt P00748); type: functional;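 note: activated factor XIIa alpha cleaving a fluorogenic AMC peptide substrate; inhibitor potency from loss of enzyme activity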
# T1 sequence (P00748 whole entry): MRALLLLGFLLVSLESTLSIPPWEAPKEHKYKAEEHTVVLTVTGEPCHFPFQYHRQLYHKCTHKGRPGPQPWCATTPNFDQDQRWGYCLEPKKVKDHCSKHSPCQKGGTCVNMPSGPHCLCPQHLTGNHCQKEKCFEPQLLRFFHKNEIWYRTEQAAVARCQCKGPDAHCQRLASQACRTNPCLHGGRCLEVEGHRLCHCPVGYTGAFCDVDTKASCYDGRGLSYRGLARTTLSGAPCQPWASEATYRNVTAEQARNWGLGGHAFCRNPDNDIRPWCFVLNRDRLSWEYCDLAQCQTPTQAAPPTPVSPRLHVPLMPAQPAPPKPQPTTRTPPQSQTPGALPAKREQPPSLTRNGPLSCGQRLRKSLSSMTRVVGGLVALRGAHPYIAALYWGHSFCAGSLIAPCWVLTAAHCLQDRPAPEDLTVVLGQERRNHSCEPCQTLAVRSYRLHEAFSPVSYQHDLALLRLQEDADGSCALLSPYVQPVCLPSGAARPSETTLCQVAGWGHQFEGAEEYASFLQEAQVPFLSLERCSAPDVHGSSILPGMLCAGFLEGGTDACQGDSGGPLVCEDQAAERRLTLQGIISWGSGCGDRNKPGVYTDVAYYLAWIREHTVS
# [1] = molecular target: T2, Ubiquitin-conjugating enzyme E2 N (Homo sapiens, UniProt P61088); type: functional;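 note: Dose-response confirmation in a TR-FRET assay detecting UBC13-driven polyubiquitin chain formation, inhibition measured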
# T2 sequence (P61088 whole entry): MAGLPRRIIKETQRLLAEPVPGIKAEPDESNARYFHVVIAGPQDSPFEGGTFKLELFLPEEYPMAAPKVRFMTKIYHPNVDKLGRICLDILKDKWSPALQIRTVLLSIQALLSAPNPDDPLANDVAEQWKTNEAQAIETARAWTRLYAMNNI
# Escherichia coli = assay: microbe, parasite or virus in culture
# Cytochrome P450 3A4 = Cytochrome P450 3A4 (Homo sapiens, UniProt P08684);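 note: CYP3A4 tested as one member of a cytochrome P450 panel screen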
# Nonstructural protein 1 = Nonstructural protein 1 (Influenza A virus, UniProt Q194T2); type: functional, Influenza A virus (A/California/07/2009(H1N1))
# [2] = molecular target: T3, DNA repair and recombination protein RAD54-like (Homo sapiens, UniProt Q92698); assay: RAD54 Holliday junction migration blockers – biochemical, fluorescence, cherry-picked samples, dose series, confirmation (AID 651657); type: functional
# T3 sequence (Q92698 whole entry): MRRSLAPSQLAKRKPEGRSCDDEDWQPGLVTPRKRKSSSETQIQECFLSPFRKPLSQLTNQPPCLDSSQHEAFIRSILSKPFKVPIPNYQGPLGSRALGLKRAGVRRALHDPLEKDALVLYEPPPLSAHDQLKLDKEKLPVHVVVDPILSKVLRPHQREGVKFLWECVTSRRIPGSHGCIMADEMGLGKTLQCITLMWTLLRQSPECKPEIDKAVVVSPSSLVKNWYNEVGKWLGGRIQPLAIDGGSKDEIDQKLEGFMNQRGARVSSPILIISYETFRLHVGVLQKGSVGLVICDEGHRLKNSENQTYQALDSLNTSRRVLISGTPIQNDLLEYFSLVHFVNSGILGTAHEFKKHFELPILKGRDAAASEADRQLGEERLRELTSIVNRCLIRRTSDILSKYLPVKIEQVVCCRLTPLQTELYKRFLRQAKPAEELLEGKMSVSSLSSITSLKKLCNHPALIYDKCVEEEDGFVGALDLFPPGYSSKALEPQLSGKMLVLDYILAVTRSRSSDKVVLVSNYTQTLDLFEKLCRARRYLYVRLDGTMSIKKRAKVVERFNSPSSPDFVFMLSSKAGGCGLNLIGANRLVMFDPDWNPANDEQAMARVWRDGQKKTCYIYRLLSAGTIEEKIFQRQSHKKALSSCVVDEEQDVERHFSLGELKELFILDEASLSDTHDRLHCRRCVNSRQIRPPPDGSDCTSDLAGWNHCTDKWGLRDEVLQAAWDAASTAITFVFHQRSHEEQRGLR
# [3] = molecular target: T4, Calpain-2 catalytic subunit (Sus scrofa, UniProt P43367); assay: m-calpain protease blockers, concentration series – biochemical, fluorogenic peptide substrate, dose response (AID 1420); type: functional
# T4 sequence (P43367 whole entry): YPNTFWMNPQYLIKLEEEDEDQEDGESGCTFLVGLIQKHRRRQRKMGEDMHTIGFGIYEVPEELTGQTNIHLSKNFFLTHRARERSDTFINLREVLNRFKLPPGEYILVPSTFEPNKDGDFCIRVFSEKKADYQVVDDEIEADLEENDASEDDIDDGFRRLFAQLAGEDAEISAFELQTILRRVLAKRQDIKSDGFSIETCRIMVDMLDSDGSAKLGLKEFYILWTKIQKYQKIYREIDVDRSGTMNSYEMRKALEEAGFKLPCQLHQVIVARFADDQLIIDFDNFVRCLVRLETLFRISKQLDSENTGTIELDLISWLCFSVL
# HEK293 [4] = assay: inhibition of NOD1-driven NF-kB reporter – cell-based, luminescence, uHTS, primary screen (AID 1578); type: functional; details: Homo sapiens
# HEK293 [5] = assay: cells; type: functional, cell-based; details: Homo sapiens
# HEK293 [6] = assay: cells; type: functional, cell-based; details: Homo sapiens; remark: listed apart in the source
# HEK293 [7] = assay: NOD2 signaling inhibitors in MDP-stimulated cells, cell-based, uHTS, luminescence (AID 2001); type: functional; details: Homo sapiens
# [8] = molecular target: Glyceraldehyde-3-phosphate dehydrogenase (Homo sapiens, UniProt P04406)
# [9] = molecular target: T5, Alkaline phosphatase, tissue-nonspecific isozyme (Homo sapiens, UniProt P05186); assay: potency against alkaline phosphatase TNAP – biochemical, luminescent, dose response, SAR follow-up (AID 1056)
# T5 sequence (P05186 whole entry): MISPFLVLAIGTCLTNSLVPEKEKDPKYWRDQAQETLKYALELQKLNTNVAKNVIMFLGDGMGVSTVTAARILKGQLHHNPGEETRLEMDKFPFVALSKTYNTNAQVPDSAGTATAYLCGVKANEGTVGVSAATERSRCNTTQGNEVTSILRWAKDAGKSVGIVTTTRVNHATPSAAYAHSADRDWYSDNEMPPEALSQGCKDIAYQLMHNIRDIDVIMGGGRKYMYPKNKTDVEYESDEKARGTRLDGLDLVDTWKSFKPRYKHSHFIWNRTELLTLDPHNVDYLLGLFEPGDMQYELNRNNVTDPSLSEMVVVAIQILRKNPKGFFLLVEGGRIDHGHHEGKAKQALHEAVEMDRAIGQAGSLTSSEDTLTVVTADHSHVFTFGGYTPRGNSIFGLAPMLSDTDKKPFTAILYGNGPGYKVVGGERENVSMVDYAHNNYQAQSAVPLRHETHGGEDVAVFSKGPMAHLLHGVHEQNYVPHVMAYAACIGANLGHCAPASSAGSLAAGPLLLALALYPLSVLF
# BJ [10] = assay: BJ-TERT fibroblast viability loss – cell-based, RAS-independent, luminescence, dose response (AID 1933); type: functional; details: Homo sapiens
# BJ [11] = assay: cells; type: functional, cell-based; details: Homo sapiens
# BJ [12] = assay: BJ-TERT-LT-ST fibroblast viability loss – cell-based, RAS-independent, luminescence, dose response (AID 1935); type: functional; details: Homo sapiens;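 note: BJ fibroblasts immortalized with TERT plus LT and ST oncogenes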
# [13] = DRD fibroblast viability loss – cell-based, non-viral oncogenic, luminescence, dose response (AID 1934); type: functional; details: Homo sapiens
# [14] = HEK-293T viability loss after treatment – luminescence, T-cell screen hits, cytotoxicity control for TCR NF-kB inhibitor project, dose response (AID 489026); type: functional, cell-based;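 note: cells exposed to compound about 14 hours before the viability readout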
# BJ [15] = assay: growth inhibition of engineered Ras-driven BJ cells – cell-based, alamar blue fluorescence, cherrypicked samples, dose response (AID 2631); type: functional; details: Homo sapiens;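 note: confirmatory dose-response assay in RAS-dependent BJ fibroblasts engineered with TERT, LT and ST, with cytotoxicity read by fluorescence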
# Leucine aminopeptidase = molecular target: T6, Leucine aminopeptidase (Plasmodium falciparum 3D7, UniProt Q8IL11); assay: P. falciparum M17LAP inhibitors, primary screen, biochemical, fluorogenic H-Leu-NHMec substrate, 1536-well (AID 1619); type: functional
# T6 sequence (Q8IL11 whole entry): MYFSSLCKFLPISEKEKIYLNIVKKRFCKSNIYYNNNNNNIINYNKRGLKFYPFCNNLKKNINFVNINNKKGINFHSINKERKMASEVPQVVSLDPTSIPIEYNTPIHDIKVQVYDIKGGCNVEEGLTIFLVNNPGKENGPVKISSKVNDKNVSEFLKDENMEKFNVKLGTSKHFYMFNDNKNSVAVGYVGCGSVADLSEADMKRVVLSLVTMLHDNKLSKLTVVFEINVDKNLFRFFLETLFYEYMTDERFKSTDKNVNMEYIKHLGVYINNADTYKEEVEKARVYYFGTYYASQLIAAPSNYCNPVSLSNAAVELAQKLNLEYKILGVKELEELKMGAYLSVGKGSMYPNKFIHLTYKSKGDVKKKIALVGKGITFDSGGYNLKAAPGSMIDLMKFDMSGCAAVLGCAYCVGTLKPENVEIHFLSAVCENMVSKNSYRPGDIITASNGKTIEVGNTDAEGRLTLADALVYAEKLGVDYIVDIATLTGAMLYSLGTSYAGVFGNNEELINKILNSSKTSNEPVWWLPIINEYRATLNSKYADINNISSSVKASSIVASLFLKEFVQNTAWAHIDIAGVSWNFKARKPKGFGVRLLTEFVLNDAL
# [16] = molecular target: T7, High affinity choline transporter 1 (Homo sapiens, UniProt Q9GZV3); assay: human choline transporter blockers, potency – cell-based, 5-point CRC, membrane potential dye, dose response (AID 504840); type: functional
# T7 sequence (Q9GZV3 whole entry): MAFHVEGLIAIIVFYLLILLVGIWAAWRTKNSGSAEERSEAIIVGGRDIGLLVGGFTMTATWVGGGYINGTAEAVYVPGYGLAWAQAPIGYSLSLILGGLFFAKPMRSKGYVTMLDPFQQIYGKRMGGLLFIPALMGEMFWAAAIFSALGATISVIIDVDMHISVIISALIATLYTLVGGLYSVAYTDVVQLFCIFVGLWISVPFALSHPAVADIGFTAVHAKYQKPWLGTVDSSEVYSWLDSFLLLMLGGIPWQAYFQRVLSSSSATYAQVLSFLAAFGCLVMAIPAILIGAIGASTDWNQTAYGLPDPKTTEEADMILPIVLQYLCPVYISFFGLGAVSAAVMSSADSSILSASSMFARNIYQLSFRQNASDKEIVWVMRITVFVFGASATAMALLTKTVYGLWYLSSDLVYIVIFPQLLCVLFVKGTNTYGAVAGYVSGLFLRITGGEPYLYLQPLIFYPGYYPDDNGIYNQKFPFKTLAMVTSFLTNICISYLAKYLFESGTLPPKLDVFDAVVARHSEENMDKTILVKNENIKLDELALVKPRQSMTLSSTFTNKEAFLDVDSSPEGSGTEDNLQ
# [17] = luciferase reporter signal suppression in cells – H4 neuroglioma cells, luminescence, dose response (AID 1990); type: functional, cell-based
# [18] = Luminescence Cell-Based Dose Response HTS to Identify Inhibitors of 5'UTR Stem-Loop Driven Prion Protein mRNA Translation in H4 Neuroglioblastoma Cells. [Related pubchem assays: 1827 (Project Summary), 1813 (Primary HTS)]; type: functional
# [19] = alpha-synuclein stem-loop luciferase translation blockers – H4 neuroglioma cells, luminescence, confirmation (AID 1988); type: functional, cell-based
# [20] = microbe, parasite or virus in culture; type: functional; details: Mycobacterium tuberculosis
# Glyceraldehyde-3-phosphate dehydrogenase, sequence (P04406 whole entry): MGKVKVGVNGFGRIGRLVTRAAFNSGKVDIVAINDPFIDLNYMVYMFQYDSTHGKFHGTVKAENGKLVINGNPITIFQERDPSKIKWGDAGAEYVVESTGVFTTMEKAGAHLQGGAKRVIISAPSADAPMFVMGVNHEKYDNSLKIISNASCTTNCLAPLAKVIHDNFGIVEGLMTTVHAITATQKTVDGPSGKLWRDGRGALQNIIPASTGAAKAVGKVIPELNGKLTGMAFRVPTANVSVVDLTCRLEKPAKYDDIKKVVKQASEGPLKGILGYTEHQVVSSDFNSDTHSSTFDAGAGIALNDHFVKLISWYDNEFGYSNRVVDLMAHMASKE
# Nonstructural protein 1, sequence (Q194T2 whole entry): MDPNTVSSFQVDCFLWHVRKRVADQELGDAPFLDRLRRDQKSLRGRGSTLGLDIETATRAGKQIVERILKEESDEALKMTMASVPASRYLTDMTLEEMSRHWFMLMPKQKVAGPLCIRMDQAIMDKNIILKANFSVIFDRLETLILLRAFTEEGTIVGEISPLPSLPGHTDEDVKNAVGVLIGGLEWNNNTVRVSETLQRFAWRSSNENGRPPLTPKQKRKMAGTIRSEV
# Cytochrome P450 3A4, sequence (P08684 whole entry): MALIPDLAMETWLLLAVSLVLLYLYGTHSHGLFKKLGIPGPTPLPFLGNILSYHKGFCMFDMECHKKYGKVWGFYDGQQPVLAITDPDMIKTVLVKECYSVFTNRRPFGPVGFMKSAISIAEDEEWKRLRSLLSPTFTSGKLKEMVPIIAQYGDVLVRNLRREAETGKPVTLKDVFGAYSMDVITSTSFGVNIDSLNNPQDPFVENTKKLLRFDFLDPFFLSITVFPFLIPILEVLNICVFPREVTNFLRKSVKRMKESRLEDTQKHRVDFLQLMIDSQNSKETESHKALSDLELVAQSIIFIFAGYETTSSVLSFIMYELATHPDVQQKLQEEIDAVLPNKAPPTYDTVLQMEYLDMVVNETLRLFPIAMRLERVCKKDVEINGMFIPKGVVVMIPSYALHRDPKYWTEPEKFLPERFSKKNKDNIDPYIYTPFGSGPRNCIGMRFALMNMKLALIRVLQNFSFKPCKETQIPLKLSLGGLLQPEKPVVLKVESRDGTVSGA
compound,measurement,setting,value
Cc1ccc(NC(=O)NCc2ccc3c(c2)OCO3)cc1,IC50,Coagulation factor XII,> 50 µM (inactive)
O=C(N[C@H](C(=O)O)c1ccccc1)C1CCC(Cn2nnc3ccccc3c2=O)CC1 (some centres undefined),IC50,Coagulation factor XII,> 50 µM (inactive)
Cc1ccc2c(c1)C1CN(C)CCC1N2C(=O)CCCN1C(=O)c2cccc3cccc(c23)C1=O (centres undefined),IC50,[1],> 20 µM (inactive)
CCNC(=O)OCC12CC3CC(CC(C3)C1)C2,AC50,Escherichia coli,33.5 µM (active)
Cn1c(=O)[nH]c2ncn(C)c2c1=O [PARAXANTHINE],AC50,Cytochrome P450 3A4,inconclusive
same,AC50,Escherichia coli,23.3 µM (active)
C=CC(=O)Nc1ccc(N(C)c2ccnc(Nc3ccc(N4CCN(C)CC4)cc3)n2)cc1,IC50,[1],> 20 µM (inactive)
same,IC50,Nonstructural protein 1,25.5 µM (active)
same,AC50,[2],21 µM (active)
COc1ccc(OC)c(CNc2ccc([N+](=O)[O-])cc2C)c1,IC50,[3],8.98 µM (not active)
same,IC50,Coagulation factor XII,> 50 µM (inactive)
COc1ccccc1NS(=O)(=O)c1cc(NC(C)=O)ccc1N1CCCCC1,AC50,Escherichia coli,30.4 µM (active)
COc1ccccc1N1CCN(C/C(O)=C(\C#N)c2nc(-c3ccccc3)cs2)CC1,IC50,Coagulation factor XII,> 50 µM (inactive)
COc1ccc(NC(=O)Nc2nnc(-c3ccncc3)s2)cc1,EC50,HEK293 [4],5.39 µM (active)
same,IC50,HEK293 [5],5.85 µM (active)
same,IC50,HEK293 [6],> 20 µM (inactive)
same,IC50,HEK293 [7],6.01 µM (active)
CN(C(=O)COC(=O)c1cc(-c2ccc(Br)cc2)[nH]n1)C1CCCCC1,IC50,[8],> 100 µM (not active)
same,IC50,[9],> 100 µM (inactive)
O=C(Nc1ccc([N+](=O)[O-])cc1)Nc1ccon1,EC50,BJ [10],1.57 µM (active)
same,EC50,BJ [11],12.1 µM (active)
same,EC50,BJ [12],4.66 µM (active)
same,EC50,[13],1.21 µM (active)
same,IC50,[14],> 80 µM (inactive)
same,EC50,BJ [15],< 0.104 µM (active)
O=C(O)C1CCN(c2nc(-c3ccccc3)nc3c2oc2ccccc23)CC1,IC50,Leucine aminopeptidase,30.1 µM (active)
same,IC50,[16],9.12 µM (active)
CCOC(=O)c1nnc(-c2ccccc2)o1,IC50,[8],> 100 µM (not active)
same,IC50,[9],> 100 µM (inactive)
CCc1nc2ccccc2c(C(=O)OCc2nc3ccccc3c(=O)[nH]2)c1C,IC50,[1],> 20 µM (inactive)
CC(C)/N=C/c1c(O)[nH]c2ccccc12,IC50,Coagulation factor XII,> 50 µM (inactive)
ClC1=C(Cl)C(Cl)=C(Cl)C1=C/C=C/c1ccccc1,EC50,[17],3.75 µM (inconclusive)
same,EC50,BJ [10],2.55 µM (inconclusive)
same,EC50,[18],10.9 µM (active)
same,EC50,[19],3.43 µM (active)
same,EC50,BJ [11],2.98 µM (active)
same,CC50,[20],7.07 µM (active)
same,EC50,BJ [12],2.42 µM (inconclusive)
same,EC50,[13],2.45 µM (active)
same,IC50,Nonstructural protein 1,33.6 µM (active)
same,EC50,BJ [15],1.25 µM (active)
c1cncc(-n2cnnn2)c1,IC50,[8],> 100 µM (not active)
same,IC50,[9],> 100 µM (inactive)
CCn1c2ccc(C)cc2c2nnc(SCCN3CCOCC3)nc21,AC50,Escherichia coli,89.7 µM (active)

# — ChEMBL document CHEMBL1201862, “PubChem BioAssay data set” (2004)
